Activity calls are given as the source filed them. The calls are words filed in the database; no cut-off is given here.
Key:
[1] = target: T1, Aurora kinase A (Homo sapiens, UniProt O14965); assay: Inhibition of human recombinant Aurora A kinase using biotinylated peptide substrate preincubated for 15 mins with compound measured after 30 mins by fluorescence analysis
T1 sequence (O14965 whole entry): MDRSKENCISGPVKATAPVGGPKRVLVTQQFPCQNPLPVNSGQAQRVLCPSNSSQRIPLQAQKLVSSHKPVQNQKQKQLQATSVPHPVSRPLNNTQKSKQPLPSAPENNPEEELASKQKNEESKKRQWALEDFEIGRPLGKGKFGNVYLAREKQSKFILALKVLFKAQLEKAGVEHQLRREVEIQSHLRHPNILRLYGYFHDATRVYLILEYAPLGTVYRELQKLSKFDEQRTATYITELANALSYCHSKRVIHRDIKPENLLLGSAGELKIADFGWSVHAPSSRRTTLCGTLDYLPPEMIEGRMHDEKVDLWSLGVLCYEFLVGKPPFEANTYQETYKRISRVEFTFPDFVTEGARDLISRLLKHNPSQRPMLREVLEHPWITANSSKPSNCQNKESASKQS

[2] = system: HCT-116; assay: Cytotoxicity against human HCT116 cells after 48 hrs by MTT assay; type: functional, cell-based; details: HCT-116, 48 h
[3] = system: MCF7; assay: Cytotoxicity against human MCF7 cells after 48 hrs by MTT assay; type: functional, cell-based; details: MCF7, 48 h
[4] = target: T2, Aurora kinase A (Homo sapiens) (UniProt O14965); assay: Inhibition of Aurora A kinase in human HCT116 cells at 0.5 to 2 uM by Western blot analysis; type: cell-based; details: HCT-116
T2 sequence (whole entry): T1 sequence (O14965 whole entry)

Cc1ccc(-c2nn(-c3ccccc3)cc2C(=O)Nc2ccc(Br)cc2)cc1
IC50 [1]: 7320 nM
IC50 [2]: 5350 nM
IC50 [3]: 6080 nM

Cc1ccc(-c2nn(-c3ccccc3)cc2C(=O)Nc2ccc(Cl)cc2)cc1
IC50 [1]: 4790 nM
IC50 [2]: 3880 nM
IC50 [3]: 4010 nM

O=C(Nc1ccc(Cl)cc1)c1cn(-c2ccccc2)nc1-c1ccccc1
IC50 [1]: 3570 nM
IC50 [2]: 3520 nM
IC50 [3]: 3860 nM

CCOc1ccc(NC(=O)c2cn(-c3ccccc3)nc2-c2ccc(OC)cc2)cc1
IC50 [1]: 780 nM
IC50 [2]: 970 nM
IC50 [3]: 1100 nM

O=C(Nc1ccccc1)c1cn(-c2ccccc2)nc1-c1ccc([N+](=O)[O-])cc1
IC50 [1]: 2100 nM
IC50 [2]: 2010 nM
IC50 [3]: 2260 nM

CCOc1ccc(NC(=O)c2cn(-c3ccccc3)nc2-c2ccc([N+](=O)[O-])cc2)cc1
inhibition [4]: Active
IC50 [1]: 160 nM
IC50 [2]: 390 nM
IC50 [3]: 460 nM

COc1ccc(-c2nn(-c3ccccc3)cc2C(=O)Nc2ccccc2)cc1
IC50 [1]: 2780 nM
IC50 [2]: 2540 nM
IC50 [3]: 2530 nM

O=C(Nc1ccc(Cl)cc1)c1cn(-c2ccccc2)nc1-c1ccc([N+](=O)[O-])cc1
IC50 [1]: 3040 nM
IC50 [2]: 2920 nM
IC50 [3]: 3240 nM

O=C(Nc1ccc(Br)cc1)c1cn(-c2ccccc2)nc1-c1ccccc1
IC50 [1]: 7250 nM
IC50 [2]: 4470 nM
IC50 [3]: 5750 nM

O=C(Nc1ccc(Br)cc1)c1cn(-c2ccccc2)nc1-c1ccc([N+](=O)[O-])cc1
IC50 [1]: 5520 nM
IC50 [2]: 4080 nM
IC50 [3]: 5300 nM

CCOc1ccc(NC(=O)c2cn(-c3ccccc3)nc2-c2ccc(Cl)cc2)cc1
IC50 [1]: 220 nM
IC50 [2]: 420 nM
IC50 [3]: 560 nM

O=C(Nc1ccc(Cl)cc1)c1cn(-c2ccccc2)nc1-c1ccc(Cl)cc1
IC50 [1]: 3180 nM
IC50 [2]: 2990 nM
IC50 [3]: 3750 nM

CCOc1ccc(NC(=O)c2cn(-c3ccccc3)nc2-c2ccc(C)cc2)cc1
IC50 [1]: 650 nM
IC50 [2]: 780 nM
IC50 [3]: 1030 nM

O=C(Nc1ccccc1)c1cn(-c2ccccc2)nc1-c1ccc(Cl)cc1
IC50 [1]: 2100 nM
IC50 [2]: 2180 nM
IC50 [3]: 2340 nM

COc1ccc(NC(=O)c2cn(-c3ccccc3)nc2-c2ccc(OC)cc2)cc1
IC50 [1]: 1620 nM
IC50 [2]: 1520 nM
IC50 [3]: 1770 nM

Cc1ccc(-c2nn(-c3ccccc3)cc2C(=O)Nc2ccccc2)cc1
IC50 [1]: 2650 nM
IC50 [2]: 2360 nM
IC50 [3]: 2450 nM

O=C(Nc1ccc(Br)cc1)c1cn(-c2ccccc2)nc1-c1ccc(Cl)cc1
IC50 [1]: 5710 nM
IC50 [2]: 4360 nM
IC50 [3]: 5310 nM

Cc1cc(Nc2cc(N3CCN(C)CC3)nc(Sc3ccc(NC(=O)C4CC4)cc3)n2)n[nH]1 [TOZASERTIB]
IC50 [3]: 380 nM

COc1ccc(-c2nn(-c3ccccc3)cc2C(=O)Nc2ccc(Br)cc2)cc1
IC50 [1]: 12400 nM
IC50 [2]: 5870 nM
IC50 [3]: 8210 nM

COc1ccc(NC(=O)c2cn(-c3ccccc3)nc2-c2ccc(C)cc2)cc1
IC50 [1]: 1450 nM
IC50 [2]: 1450 nM
IC50 [3]: 1620 nM

COc1ccc(-c2nn(-c3ccccc3)cc2C(=O)Nc2ccc(Cl)cc2)cc1
IC50 [1]: 5590 nM
IC50 [2]: 4060 nM
IC50 [3]: 4350 nM

O=C(Nc1ccccc1)c1cn(-c2ccccc2)nc1-c1ccccc1
IC50 [1]: 2340 nM
IC50 [2]: 2310 nM
IC50 [3]: 2340 nM

COc1ccc(NC(=O)c2cn(-c3ccccc3)nc2-c2ccccc2)cc1
IC50 [1]: 1330 nM
IC50 [2]: 1350 nM
IC50 [3]: 1710 nM

COc1ccc(NC(=O)c2cn(-c3ccccc3)nc2-c2ccc(Cl)cc2)cc1
IC50 [1]: 840 nM
IC50 [2]: 1330 nM
IC50 [3]: 1550 nM

COc1ccc(NC(=O)c2cn(-c3ccccc3)nc2-c2ccc([N+](=O)[O-])cc2)cc1
IC50 [1]: 790 nM
IC50 [2]: 1020 nM
IC50 [3]: 1210 nM

CCOc1ccc(NC(=O)c2cn(-c3ccccc3)nc2-c2ccccc2)cc1
IC50 [1]: 420 nM
IC50 [2]: 620 nM
IC50 [3]: 880 nM

From ChEMBL document CHEMBL2029348, “Synthesis, biological evaluation, and molecular docking studies of N,1,3-triphenyl-1H-pyrazole-4-carboxamide derivatives as anticancer agents” (Bioorg Med Chem Lett, 2012)
